From patent publication US11325909B2, “Crystalline 2-amino-2-(hydroxymethyl)propane-1,3-diol salt of 4-(4-(1-isopropyl-7-OXO-1,4,6,7-tetrahydrospiro[indazole-5,4′-piperidine]-1′-carbonyl)-6-methoxypryridin-2-YL)benzoic acid” (Pfizer Inc., priority 2017, dated 2022)
Where a name gives a salt, the structure may show the parent alone.

Tests used:
[1] = Thermodynamic solubility (24 hours agitation at RT, filtration, nitrogen detector); type: physicochemical; details: for Solubility pH 1.2: pH 1.2, 24 hours at RT; for Solubility pH 6.5: pH 6.5, 24 hours at RT; for Solubility pH 7.4: pH 7.4, 24 hours at RT
Procedure: Four hundred fifty microliters (450 μL) of the desired medium was added to the filter and agitated for 24 hours at RT. After 24 hours, the sample was filtered and the filtrates were injected into a nitrogen detector for quantification.
pH 1.2: Weigh out 1.0 g of NaCl and transfer to a beaker. Add about 450 mL HPLC-grade water to dissolve the NaCl. […] Transfer the solution to a 500 mL volumetric flask and bring to 500 mL with HPLC-grade water.
pH 6.5: Titrate about 250 mL of 50 mM NaPO4 dibasic with about 500 mL of 50 mM NaPO4 monobasic to pH 6.5. The ending total volume is the volume at the point the solution has a pH 6.5 is reached when adding 50 mM NaPO4 monobasic to the 50 mM NaPO4 dibasic.
pH 7.4: Titrate about 200 mL of 50 mM NaPO4 dibasic with about 50 mL of 50 mM NaPO4 monbasic to pH 7.4. The ending total volume is the volume at the point the solution has a pH 7.4 is reached when adding 50 mM NaPO4 monobasic to the 50 mM NaPO4 dibasic.

[2] = Pharmacokinetic studies, oral dose, male (fasted) cynomolgus monkeys; type: in vivo
Procedure: Pharmacokinetic studies were conducted in male (fasted) cynomolgus monkeys (n=2 for each formulation). An oral pill was prepared to compare Form 1 and Form 2. […] The dosage was administered as an oral dose containing 2, 5, or 10 mg/kg, respectively. Serial blood samples were collected at the 0, 0.25, 0.5, 1, 2, 4, 7, and 24-hour time points via the femoral vein by syringe and transferred into K3EDTA vacutainers. Blood samples were then centrifuged, the plasma harvested and stored at −20° C. or −80° C. until analysis.
The appropriate amount of either Form 1 or Form 2 was transferred into a mortar. The corresponding amount of the excipient blend was then geometrically added to the mortar and mixed thoroughly with the respective Form 1 or Form 2 using a pestle. The mixture was transferred to a container, and blended on a Turbula mixer for 5 minutes to provide a blend containing the respective Form 1 or Form 2 mixed with the excipients.
The tablets were compressed to achieve 100 mg tablet weight, with target tablet hardness between 4 and 9 kp at the press speed of 15 tablets per minute.
To prepare a representative batch size of 1 L of 0.5% (w/v) methylcellulose (Methocel® A4M) solution, approximately 0.4 L of deionized water was heated to 80-90° C. after which 5 grams of methylcellulose (Methocel® A4M) was added and mixed thoroughly until the particles were thoroughly wetted. The mixture was then removed from heat. Cold water (0.6 L) was then added, while continuously stirring in the ice bath, until all the methylcellulose particles were dissolved.
The solid powder was triturated (lumps broken) using a pestle. Two mL of 0.5% w/v methylcellulose (Methocel® A4M) was added to the powder drop-wise. The vehicle and free acid were well mixed to form a smooth paste. The remaining of the vehicle was added in small aliquots while mixing until a uniform suspension was obtained. […] Twenty-two microliter of Polysorbate 80 (Tween® 80) was added to the suspension.
The solid powder was triturated (lumps broken) using a pestle. Small amount of 0.5% w/v methylcellulose (Methocel® A4M) was added to the powder to form a smooth paste. The remaining of the vehicle was added in small aliquots while mixing until a uniform suspension was obtained. The suspension was transferred to a container and made up to final volume of 50 mL.

[3] = Hygroscopicity observed during salt evaluation (mainly through visualization); type: physicochemical
Excerpt: Determining whether a solid would form was just one factor in this evaluation. […] See, e.g., C. Saal, A. Becker, Euro.

[4] = Hygroscopicity by dynamic vapor sorption; type: physicochemical; details: at 90% RH/25° C.
Procedure: Hygroscopicity was measured using a dynamic vapor sorption instrument manufactured by TA Instruments or Surface Measurement Systems. A sample of each Form was exposed to incremental RH levels until either a weight equilibrium (seen as a plateau) of ≤0.001% weight change in 5 minutes was met, or a maximum time of 120 minutes at each RH level. After the shorter of 0.001% weight equilibrium in 5 minutes or 120 minutes, the sample was then exposed to the next RH level. There was an initial drying period where weight may have been lost with Form 1, no drying was utilized for Form 2. The process starts at 10% RH with RH increased to 20% RH and then a 10% RH increase after each interval (0.001% in 5 minutes equilibrium or 120 min, whichever occurred first). At 90% RH, the RH was reversed back to 10% RH using the same equilibration criteria. The hygroscopicity is measured as a function of the percent weight gain measured at 90% RH.

[5] = Thermodynamic stability of crystalline forms versus water activity; type: physicochemical; details: ambient temperature; 0.2 corresponds to 20% RH
[6] = Immediate Release Tablet, 2 mg/kg

## COc1cc(C(=O)N2CCC3(CC2)CC(=O)c2c(cnn2C(C)C)C3)cc(-c2ccc(C(=O)O)cc2)n1 [Compound 1, 4-(4-(1-isopropyl-7-oxo-1,4,6,7-tetrahydrospiro[indazole-5,4′-piperidine]-1′-carbonyl)-6-methoxypyridin-2-yl)benzoic acid]
[1]; listed as Free acid - batch A
  Solubility pH 1.2: 11.8 (avg, n = 2, μM
  Solubility pH 6.5: 44.7 (avg, n = 2, μM
  Solubility pH 7.4: 255.0 (avg, n = 2, μM
[1]; listed as Free acid - batch B
  Solubility pH 1.2: 13.0 (avg, n = 2, μM
  Solubility pH 6.5: 222.0 (avg, n = 2, μM
  Solubility pH 7.4: 1700.0 (avg, n = 2, μM
[1]; listed as Free acid - batch C
  Solubility pH 1.2: <0.5 μM
  Solubility pH 6.5: 19.6 μM
  Solubility pH 7.4: 194.0 μM
[2]; Suspension, 10 mg/kg
  AUC/Dose: 4120 ng*h/ml/mpk

## sodium
[3]
  hygroscopicity of the isolated solid (observation): too hygroscopic

## [Ca] [Calcium]
[1]
  Solubility pH 1.2: 13.5 μM
  Solubility pH 6.5: 1500.0 μM
  Solubility pH 7.4: 5050.0 μM
[3]
  hygroscopicity of the isolated solid (observation): too hygroscopic

## COc1cc(C(=O)N2CCC3(CC2)CC(=O)c2c(cnn2C(C)C)C3)cc(-c2ccc(C(=O)O)cc2)n1 [Form 2]
[2]; [6]
  AUC/Dose: 5650 ng*h/ml/mpk
[4]
  hygroscopicity (percent weight gain): about 1%
[5]
  water activity at which the form is thermodynamically stable: > 0.2

## COc1cc(C(=O)N2CCC3(CC2)CC(=O)c2c(cnn2C(C)C)C3)cc(-c2ccc(C(=O)O)cc2)n1 [Form 1, 4-(4-(1-isopropyl-7-oxo-1,4,6,7-tetrahydrospiro[indazole-5,4′-piperidine]-1′-carbonyl)-6-methoxypyridin-2-yl)benzoic acid anhydrous tris salt]
[1]; listed as Tris (Form 1)
  Solubility pH 1.2: 1320.0 μM
  Solubility pH 6.5: 3980.0 μM
  Solubility pH 7.4: 4770.0 μM
[2]; [6]
  AUC/Dose: 5750 ng*h/ml/mpk
[2]; Suspension, 5 mg/kg
  AUC/Dose: 7240 ng*h/ml/mpk
[4]
  hygroscopicity (percent weight gain): about 1%
[5]
  water activity at which the form is thermodynamically stable: < 0.2

## [K+] [potassium]
[3]
  hygroscopicity of the isolated solid (observation): too hygroscopic

## O=S(=O)(O)O [sulfuric acid]
[3]
  hygroscopicity of the isolated solid (observation): very hygroscopic
